Values quoted from earlier work, collected in patent US12070444B2, “Modulation of molecular markers using S-equol” (Board of Regents, The University of Texas System, priority 2020, dated 2024).
Read-outs that look alike come from different tables or passages of the source.

How the values were obtained:
[1] = test system: tumor resistance to ICB immunotherapy; conditions: recent report (Huang, 2020); cited from earlier work
Ki67 expression = conditions: IMPACT trial; cited from earlier work
TNBC = conditions: cited from earlier work

Oc1ccc([C@@H]2Oc3ccc(O)cc3[C@@H]3CCC[C@@H]32)cc1 [LY500307]
effect on tumor resistance to ICB immunotherapy [1]: overcoming tumor resistance to ICB immunotherapy

CC(C)(C#N)c1cc(Cn2cncn2)cc(C(C)(C)C#N)c1 [anastrazole]
change in the geometric mean of Ki67 expression after two weeks (Ki67 expression): −76%

CC/C(=C(\c1ccccc1)c1ccc(OCCN(C)C)cc1)c1ccccc1 [tamoxifen]
change in the geometric mean of Ki67 expression after two weeks (Ki67 expression): −59.5%

atezolizumab
response rate (TNBC; 21 evaluable, PD-L1 expressing TNBC tumors (Emens et al. 2015)): 19%

avelumab
response rate (TNBC; 168 TNBC tumors unselected for PD-L1 expression (Dirix et al. 2015)): 8.6%

pembrolizumab
response rate (TNBC; Phase 1 study, 27 women, heavily pretreated chemotherapy resistant metastatic TNBC expressing PD-L1 (Nanda et al. 2016)): 18.4%
